The values that follow are results of earlier work, collected in patent publication US10765754B2, “Compositions and methods related to inhibition of respiratory syncytial virus entry” (priority 2015, dated 2020).

This data set has as its system RSV. To be noted: high-risk infants; cited from earlier work.

For the substance “Synagis: monoclonal antibody (mAb) given prophylactically throughout RSV season”, the reduction of hospitalizations was 55%.
